From patent US10662195B2, “Protein kinase conjugates and inhibitors” (Celgene Avilomics Research, Inc., priority 2009, dated 2020)
Read-outs that look alike come from different tables or passages of the source. One block for each compound: values may come before it.

Assays:
KDR = KDR (Homo sapiens, UniProt P35968); test: KDR Omnia continuous-read kinase assay; assay type: biochemical; parameters: purchased Invitrogen or BPS Bioscience PV3660 or 40301
Description: (§1) A. KDR and FLT-3 Omnia Assay for Potency Assessment:
(§2) The protocol below describes a continuous-read kinase assay to measure inherent potency of Avila Therapeutics' compounds against active KDR and FLT-3 enzymes. The assay was performed substantially as described by the vendor (Invitrogen, Carlsbad, Calif.; http://www.invitrogen.com/content.cfm?pageid=11338.)
Briefly, 10× stocks of KDR from Invitrogen or BPS Bioscience (PV3660 or 40301) and FLT-3 (PV3182) enzymes, 1.13×ATP (AS001A) and Y9-Sox or Y12-Sox peptide substrates (KCZ1001) were prepared in 1× kinase reaction buffer consisting of 20 mM Tris, pH 7.5, 5 mM MgCl2, 1 mM EGTA, 5 mM β-glycerophosphate, 5% glycerol (10× stock, KB002A) and 0.2 mM DTT (DS001A). 5 μL of enzyme were pre-incubated in a Corning (#3574) 384-well, white, non-binding surface microtiter plate (Corning, N.Y.) for 30 min at 27° C. with a 0.5 μL volume of 50% DMSO and serially diluted compounds prepared in 50% DMSO. Kinase reactions were started with the addition of 45 μL of the ATP/Y9 or Y5-Sox peptide substrate mix and monitored every 30-90 seconds for 60 minutes at λex360/λem485 in a Synergy^4 plate reader from BioTek (Winooski, Vt.). At the conclusion of each assay, progress curves from each well were examined for linear reaction kinetics and fit statistics (R^2, 95% confidence interval, absolute sum of squares). Initial velocity (0 minutes to 20+ minutes) from each reaction was determined from the slope of a plot of relative fluorescence units vs time (minutes) and then plotted against inhibitor concentration to estimate IC50 from Log [Inhibitor] vs Response, Variable Slope model in GraphPad Prism from GraphPad Software (San Diego, Calif.). […]
(§3) The reported IC50_APP and IC50 values are in units of nM.

BTK = BTK (Homo sapiens, UniProt Q06187); test: Omnia assay for potency assessment against BTK; assay type: biochemical
BTK, sequence (Q06187 whole entry): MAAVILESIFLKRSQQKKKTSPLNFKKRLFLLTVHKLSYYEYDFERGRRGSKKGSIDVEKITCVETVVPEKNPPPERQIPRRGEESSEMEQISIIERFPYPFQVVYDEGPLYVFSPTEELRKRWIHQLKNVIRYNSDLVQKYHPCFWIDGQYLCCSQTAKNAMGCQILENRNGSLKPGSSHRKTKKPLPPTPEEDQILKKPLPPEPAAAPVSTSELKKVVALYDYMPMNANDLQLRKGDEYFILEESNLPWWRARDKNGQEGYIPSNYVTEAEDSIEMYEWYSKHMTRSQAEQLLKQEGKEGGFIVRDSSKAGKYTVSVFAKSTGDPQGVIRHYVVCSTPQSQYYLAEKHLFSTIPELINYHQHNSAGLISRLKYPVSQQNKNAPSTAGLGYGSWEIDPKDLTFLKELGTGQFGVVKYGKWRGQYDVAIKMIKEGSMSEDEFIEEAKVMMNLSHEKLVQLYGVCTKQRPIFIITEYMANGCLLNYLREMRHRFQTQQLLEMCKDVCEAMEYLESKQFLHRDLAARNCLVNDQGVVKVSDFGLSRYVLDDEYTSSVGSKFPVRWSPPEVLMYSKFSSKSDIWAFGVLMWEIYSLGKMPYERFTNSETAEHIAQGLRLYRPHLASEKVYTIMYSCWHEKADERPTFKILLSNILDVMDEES
Description: B. Omnia Assay Protocol for Potency Assessment Against BTK
Below describes the protocol using EGFR-WT and EGFR-T790M/L858R and the protocol BTK-optimized reagent conditions then follow.
The mechanics of the assay platform are best described by the vendor (Invitrogen, Carlsbad, Calif.) on their website at the following URL: http://www.invitrogen.com/content.cfm?pageid=11338 or http://www.invitrogen.com/site/us/en/home/Products-and-Services/Applications/Drug-Discovery/Target-and-Lead-Identification-and-Validation/KinaseBiology/KB-Misc/Biochemical-Assays/Omnia-Kinase-Assays.html.
Briefly, 10× stocks of EGFR-WT (PV3872) from Invitrogen and EGFR-T790M/L858R (40350) from BPS Bioscience, San Diego, Calif., 1.13×ATP (AS001A) and appropriate Tyr-Sox conjugated peptide substrates (KCZ1001) were prepared in 1× kinase reaction buffer consisting of 20 mM Tris, pH 7.5, 5 mM MgCl2, 1 mM EGTA, 5 mM β-glycerophosphate, 5% glycerol (10× stock, KB002A) and 0.2 mM DTT (DS001A). 5 μL of each enzyme were pre-incubated in a Corning (#3574) 384-well, white, non-binding surface microtiter plate (Corning, N.Y.) for 30 min. at 27° C. with a 0.5 μL volume of 50% DMSO and serially diluted compounds prepared in 50% DMSO. Kinase reactions were started with the addition of 45 μL of the ATP/Tyr-Sox peptide substrate mix and monitored every 30-90 seconds for 60 minutes at λex360/λem485 in a Synergy^4 plate reader from BioTek (Winooski, Vt.). At the conclusion of each assay, progress curves from each well were examined for linear reaction kinetics and fit statistics (R^2, 95% confidence interval, absolute sum of squares). Initial velocity (0 minutes to ˜30 minutes) from each reaction was determined from the slope of a plot of relative fluorescence units vs time (minutes) and then plotted against inhibitor concentration to estimate IC50 from log [Inhibitor] vs Response, Variable Slope model in GraphPad Prism from GraphPad Software (San Diego, Calif.).
The modified BTK-optimized reagent conditions for the above protocol are:
[BTK]=5 nM, [ATP]=[…], [Y5-Sox]=[…] (ATP KMapp˜[…]).
as §3

FLT3 = target: T1, FLT3 (Homo sapiens, UniProt P36888); test: FLT-3 Omnia continuous-read kinase assay; assay type: biochemical
T1 construct: purchased PV3182
T1 sequence (P36888 27-993): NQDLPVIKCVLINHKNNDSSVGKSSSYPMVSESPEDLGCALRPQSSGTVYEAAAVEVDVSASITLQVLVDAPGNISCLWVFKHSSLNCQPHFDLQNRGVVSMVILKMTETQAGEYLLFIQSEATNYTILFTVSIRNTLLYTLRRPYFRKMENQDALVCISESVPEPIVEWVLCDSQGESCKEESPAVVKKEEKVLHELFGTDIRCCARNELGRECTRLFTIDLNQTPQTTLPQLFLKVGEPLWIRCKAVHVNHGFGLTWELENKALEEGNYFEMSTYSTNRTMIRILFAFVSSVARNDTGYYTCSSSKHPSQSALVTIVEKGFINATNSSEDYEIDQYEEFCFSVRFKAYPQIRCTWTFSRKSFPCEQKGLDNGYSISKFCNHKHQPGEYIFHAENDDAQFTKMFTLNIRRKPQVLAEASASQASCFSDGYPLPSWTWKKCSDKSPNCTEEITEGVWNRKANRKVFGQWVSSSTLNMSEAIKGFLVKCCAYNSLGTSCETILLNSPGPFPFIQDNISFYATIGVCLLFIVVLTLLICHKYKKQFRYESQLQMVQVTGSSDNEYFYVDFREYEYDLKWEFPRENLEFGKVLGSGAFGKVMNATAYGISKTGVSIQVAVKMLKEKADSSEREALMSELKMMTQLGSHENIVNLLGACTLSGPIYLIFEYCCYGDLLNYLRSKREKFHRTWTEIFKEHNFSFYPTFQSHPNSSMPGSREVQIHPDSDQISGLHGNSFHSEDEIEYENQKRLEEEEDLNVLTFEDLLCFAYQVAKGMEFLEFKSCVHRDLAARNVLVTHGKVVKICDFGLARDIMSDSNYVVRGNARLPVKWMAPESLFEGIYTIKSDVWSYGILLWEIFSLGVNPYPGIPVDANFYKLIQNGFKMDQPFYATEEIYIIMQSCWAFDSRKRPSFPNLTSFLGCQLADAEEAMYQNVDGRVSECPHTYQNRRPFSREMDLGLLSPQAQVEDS
Description: as §1, §2
Briefly, 10× stocks of KDR from Invitrogen or BPS Bioscience (PV3660 or 40301) and FLT-3 (PV3182) enzymes, 1.13×ATP (AS001A) and Y9-Sox or Y12-Sox peptide substrates (KCZ1001) were prepared in 1× kinase reaction buffer consisting of 20 mM Tris, pH 7.5, 5 mM MgCl2, 1 mM EGTA, 5 mM β-glycerophosphate, 5% glycerol (10× stock, KB002A) and 0.2 mM DTT (DS001A). 5 μL of enzyme were pre-incubated in a Corning (#3574) 384-well, white, non-binding surface microtiter plate (Corning, N.Y.) for 30 min at 27° C. with a 0.5 μL volume of 50% DMSO and serially diluted compounds prepared in 50% DMSO. Kinase reactions were started with the addition of 45 μL of the ATP/Y9 or Y5-Sox peptide substrate mix and monitored every 30-90 seconds for 60 minutes at λex360/λem485 in a Synergy^4 plate reader from BioTek (Winooski, Vt.). At the conclusion of each assay, progress curves from each well were examined for linear reaction kinetics and fit statistics (R^2, 95% confidence interval, absolute sum of squares). Initial velocity (0 minutes to 20+ minutes) from each reaction was determined from the slope of a plot of relative fluorescence units vs time (minutes) and then plotted against inhibitor concentration to estimate IC50 from Log [Inhibitor] vs Response, Variable Slope model in GraphPad Prism from GraphPad Software (San Diego, Calif.).
[FLT-3]=15 nM, [ATP]=500 μM and [Y5-Sox peptide]=10 μM (ATP KMapp=470 μM)
as §3

CKIT D816V = CKIT D816V (Homo sapiens, UniProt P10721, D816V); test: c-Kit mutant Omnia kinase assay; assay type: biochemical; conditions: read-out: IC50_APP CKIT D816V
CKIT D816V, sequence (P10721 26-976 D816V): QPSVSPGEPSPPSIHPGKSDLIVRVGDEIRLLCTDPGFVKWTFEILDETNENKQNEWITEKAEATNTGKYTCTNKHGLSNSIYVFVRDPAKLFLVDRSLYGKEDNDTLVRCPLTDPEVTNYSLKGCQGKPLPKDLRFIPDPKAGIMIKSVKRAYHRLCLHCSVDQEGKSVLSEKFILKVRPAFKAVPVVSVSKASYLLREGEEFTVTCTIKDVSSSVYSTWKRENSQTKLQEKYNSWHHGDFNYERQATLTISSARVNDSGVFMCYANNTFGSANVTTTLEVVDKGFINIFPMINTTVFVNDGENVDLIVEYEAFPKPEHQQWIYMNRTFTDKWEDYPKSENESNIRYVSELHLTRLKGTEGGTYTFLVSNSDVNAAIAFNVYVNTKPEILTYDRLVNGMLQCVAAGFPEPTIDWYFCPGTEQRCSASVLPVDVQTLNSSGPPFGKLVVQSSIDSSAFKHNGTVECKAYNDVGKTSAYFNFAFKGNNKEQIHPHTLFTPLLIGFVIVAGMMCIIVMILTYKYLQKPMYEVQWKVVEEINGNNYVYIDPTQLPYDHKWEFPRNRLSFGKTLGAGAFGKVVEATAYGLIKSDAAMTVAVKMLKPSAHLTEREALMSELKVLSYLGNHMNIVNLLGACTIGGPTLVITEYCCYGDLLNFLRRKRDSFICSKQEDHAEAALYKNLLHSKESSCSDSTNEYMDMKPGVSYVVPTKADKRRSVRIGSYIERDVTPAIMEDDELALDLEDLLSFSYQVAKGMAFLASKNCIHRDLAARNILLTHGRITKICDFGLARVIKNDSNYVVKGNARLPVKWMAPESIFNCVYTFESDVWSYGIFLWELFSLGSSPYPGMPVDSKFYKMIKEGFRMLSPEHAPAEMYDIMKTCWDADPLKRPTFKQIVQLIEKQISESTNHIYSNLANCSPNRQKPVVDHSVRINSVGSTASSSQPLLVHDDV

CKIT = CKIT (Homo sapiens, UniProt P10721); test: c-Kit Omnia kinase assay; assay type: biochemical; conditions: read-out: IC50_APP CKIT
CKIT, sequence (P10721 26-976): as the sequence (P10721 26-976 D816V) above, with V791D counted along it

FAK (PTK2) = FAK (PTK2) (Homo sapiens, UniProt Q05397); test: Mass spectral analysis of intact FAK after incubation with compound; assay type: binding; conditions: 1 hr, 10× excess of compound to protein, intact protein MALDI
FAK (PTK2), sequence (Q05397 whole entry): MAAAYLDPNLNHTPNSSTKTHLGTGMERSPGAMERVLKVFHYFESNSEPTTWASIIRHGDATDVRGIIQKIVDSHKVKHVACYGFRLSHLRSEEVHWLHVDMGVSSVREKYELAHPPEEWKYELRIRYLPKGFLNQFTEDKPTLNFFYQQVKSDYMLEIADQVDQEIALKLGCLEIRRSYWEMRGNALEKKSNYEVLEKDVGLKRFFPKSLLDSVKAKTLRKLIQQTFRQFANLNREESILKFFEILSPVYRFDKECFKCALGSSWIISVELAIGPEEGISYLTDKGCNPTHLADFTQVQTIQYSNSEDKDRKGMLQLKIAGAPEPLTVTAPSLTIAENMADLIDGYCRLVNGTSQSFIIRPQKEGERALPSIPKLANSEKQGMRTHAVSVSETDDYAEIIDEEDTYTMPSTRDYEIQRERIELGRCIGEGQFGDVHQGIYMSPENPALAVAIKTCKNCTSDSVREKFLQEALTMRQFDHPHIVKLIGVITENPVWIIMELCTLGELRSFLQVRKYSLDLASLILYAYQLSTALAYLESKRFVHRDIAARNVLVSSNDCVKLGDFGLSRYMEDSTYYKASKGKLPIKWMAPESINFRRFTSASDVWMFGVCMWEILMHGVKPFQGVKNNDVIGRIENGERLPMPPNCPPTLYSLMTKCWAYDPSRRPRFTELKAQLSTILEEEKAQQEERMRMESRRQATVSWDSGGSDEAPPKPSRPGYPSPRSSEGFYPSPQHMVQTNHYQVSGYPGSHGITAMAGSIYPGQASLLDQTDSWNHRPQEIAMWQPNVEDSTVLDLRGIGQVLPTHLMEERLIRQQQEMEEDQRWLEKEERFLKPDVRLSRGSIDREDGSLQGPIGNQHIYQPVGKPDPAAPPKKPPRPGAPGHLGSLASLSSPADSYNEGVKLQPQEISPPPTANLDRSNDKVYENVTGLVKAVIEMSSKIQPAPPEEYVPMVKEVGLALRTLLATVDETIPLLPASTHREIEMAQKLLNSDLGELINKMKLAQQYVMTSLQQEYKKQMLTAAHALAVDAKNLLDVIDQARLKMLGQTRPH
Description: Intact FAK (PTK2) was incubated for 1 hr at a 10× fold access of compound IV-29 to protein. 3 ul aliquots of the samples were diluted with 10 ul of 0.1% TFA prior to micro C4 ZipTipping directly onto the MALDI target using Sinapinic acid as the desorption matrix (10 mg/ml in 0.1% TFA:Acetonitrile 50:50). Mass spec analysis was run on intact FAK (PTK2) protein (m/z 146,672 Da), and on FAK that was incubated with compound IV-29 (mw=669.2).

[1] = 30 min pre-incubation, read-out: IC50_APP KDR
[2] = 30 min pre-incubation, read-out: IC50_APP BTK
[3] = 30 min pre-incubation, [ATP]=500 μM, read-out: IC50_APP FLT3
[4] = reversible reference compounds, read-out: IC50 KDR
[5] = reversible reference compounds, read-out: IC50 BTK

KDR, sequence (P35968 20-1356): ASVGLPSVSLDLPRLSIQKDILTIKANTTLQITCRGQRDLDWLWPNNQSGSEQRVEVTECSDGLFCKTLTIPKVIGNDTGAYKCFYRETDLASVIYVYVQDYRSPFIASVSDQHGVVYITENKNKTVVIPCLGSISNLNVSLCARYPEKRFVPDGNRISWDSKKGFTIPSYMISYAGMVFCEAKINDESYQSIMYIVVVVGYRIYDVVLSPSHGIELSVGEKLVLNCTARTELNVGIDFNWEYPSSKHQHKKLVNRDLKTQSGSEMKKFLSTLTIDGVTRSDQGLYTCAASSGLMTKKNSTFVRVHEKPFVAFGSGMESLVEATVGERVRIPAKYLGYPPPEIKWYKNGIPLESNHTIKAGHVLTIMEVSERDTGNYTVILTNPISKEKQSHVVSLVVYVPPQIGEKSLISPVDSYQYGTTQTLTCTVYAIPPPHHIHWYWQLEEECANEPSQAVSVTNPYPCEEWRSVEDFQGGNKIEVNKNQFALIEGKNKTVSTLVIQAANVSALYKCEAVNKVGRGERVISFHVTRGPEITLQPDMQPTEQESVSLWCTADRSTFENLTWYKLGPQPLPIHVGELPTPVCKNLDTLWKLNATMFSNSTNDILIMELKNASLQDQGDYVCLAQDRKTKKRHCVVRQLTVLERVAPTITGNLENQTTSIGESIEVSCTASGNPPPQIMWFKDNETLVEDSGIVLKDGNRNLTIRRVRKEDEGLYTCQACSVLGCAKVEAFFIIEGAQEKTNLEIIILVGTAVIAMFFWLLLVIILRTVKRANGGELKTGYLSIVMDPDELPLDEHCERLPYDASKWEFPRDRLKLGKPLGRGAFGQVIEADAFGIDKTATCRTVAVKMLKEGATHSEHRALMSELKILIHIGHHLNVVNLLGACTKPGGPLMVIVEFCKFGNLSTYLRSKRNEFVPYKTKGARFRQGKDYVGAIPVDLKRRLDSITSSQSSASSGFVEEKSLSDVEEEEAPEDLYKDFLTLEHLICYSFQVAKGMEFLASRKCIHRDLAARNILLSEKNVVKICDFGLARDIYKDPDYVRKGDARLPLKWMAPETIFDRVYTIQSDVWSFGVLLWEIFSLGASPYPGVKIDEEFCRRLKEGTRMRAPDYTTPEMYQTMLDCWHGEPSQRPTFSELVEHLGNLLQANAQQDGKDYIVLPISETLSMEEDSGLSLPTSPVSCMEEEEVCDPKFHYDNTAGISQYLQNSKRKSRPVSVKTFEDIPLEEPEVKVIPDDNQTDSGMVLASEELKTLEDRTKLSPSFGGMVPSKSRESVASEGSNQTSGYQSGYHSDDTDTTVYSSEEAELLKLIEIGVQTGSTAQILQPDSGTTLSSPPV

Compound: CCC(=O)Nc1ccc(Sc2nc(Nc3ncc(C#N)s3)cc(N3CCN(C)CC3)n2)cc1 [Reversible Reference Compound 1, N-(4-(4-(5-Cyanothiazol-2-ylamino)-6-(4-methylpiperazin-1-yl)pyrimidin-2-ylthio)phenyl)propionamide, reference compound]
IC50 (KDR; [4]): 254 nM
IC50 (BTK; [5]): 1640 nM
IC50 (FLT3; reversible reference compounds, read-out: IC50 FLT3): 5.84 nM

Compound: CCC(=O)N1CCC(Sc2nc(Nc3ncc(C#N)s3)cc(N3CCN(C)CC3)n2)CC1 [Reversible Reference Compound 2, 2-(2-(1-Propionylpiperidin-4-ylthio)-6-(4-methylpiperazin-1-yl)pyrimidin-4-ylamino)thiazole-5-carbonitrile, reference compound]
IC50 (KDR; [4]): 95.7 nM
IC50 (BTK; [5]): 184 nM

Compound: CNC(=O)c1cc(Oc2ccc(NC(=O)Nc3ccc(NC(=O)/C=C/CN(C)C)c(C(F)(F)F)c3)cc2)ccn1 [XVIII-12]
IC50 (KDR; [1]): 148 nM
IC50 (CKIT D816V): 2.5 nM
IC50 (FLT3; [3]): 1.07 nM
IC50 (CKIT): 10.4 nM

Compound: C=CC(=O)Nc1cc(NC(=O)Nc2ccc(Oc3ccnc(C(=O)NC)c3)cc2)ccc1Cl [XVIII-15]
IC50 (KDR; [1]): 462 nM

Compound: C=CC(=O)N(C)c1ccc(NC(=O)Nc2ccc(Oc3ccnc(C(=O)NC)c3)cc2)cc1 [XVIII-16, 4-(4-(3-(4-(N-methylacrylamido)phenyl)ureido)phenoxy)-N-methylpicolinamide]
IC50 (KDR; [1]): 1340 nM

Results, then the compound that gave them:

IC50 (KDR; [1]): 39.3 nM
IC50 (BTK; [2]): 6170 nM
IC50 (FLT3; [3]): 3.15 nM
Compound: C=CC(=O)Nc1ccc(Sc2nc(Nc3ncc(C#N)s3)cc(N3CCN(C)CC3)n2)cc1 [II-1, N-(4-(4-(5-Cyanothiazol-2-ylamino)-6-(4-methylpiperazin-1-yl)pyrimidin-2-ylthio)phenyl)acrylamide]

IC50 (KDR; [1]): 290 nM
IC50 (BTK; [2]): 459 nM
Compound: CC#CC(=O)N1CCC(Sc2nc(Nc3ncc(C#N)s3)cc(N3CCN(C)CC3)n2)CC1 [II-3]

IC50 (KDR; [1]): 111 nM
IC50 (BTK; [2]): 5080 nM
Compound: C=CC(=O)NCCSc1nc(Nc2ncc(C#N)s2)cc(N2CCN(C)CC2)n1 [II-4, N-(2-(4-(5-cyanothiazol-2-ylamino)-6-(4-methylpiperazin-1-yl)pyrimidin-2-ylthio)ethyl)acrylamide]

IC50 (KDR; [1]): 39.7 nM
IC50 (BTK; [2]): 106 nM
Compound: CN(C)C/C=C/C(=O)N1CCC(Sc2nc(Nc3ncc(C#N)s3)cc(N3CCN(C)CC3)n2)CC1 [II-5]

IC50 (KDR; [1]): 15.2 nM
IC50 (CKIT D816V): 127 nM
IC50 (FLT3; [3]): 3.76 nM
IC50 (CKIT): 114 nM
Compound: C=CC(=O)Nc1ccc(Sc2nc(Nc3cc(C)n[nH]3)cc(N3CCN(C)CC3)n2)cc1 [II-53, N-(4-(4-(3-Methyl-1H-pyrazol-5-ylamino)-6-(4-methylpiperiazin-1-yl)pyrimidin-2ylthio)phenyl)acrylamide]

modification of FAK (PTK2) by compound, mass spec (FAK (PTK2)): partial modification of FAK
Compound: C=CC(=O)Nc1ccc(S(=O)(=O)N2CCN(c3ccc(Nc4ncc(Cl)c(Nc5ccccc5C(=O)NC)n4)c(OC)c3)CC2)cc1 [IV-31, 2-(2-{4-[4-(4-Acryloylamino-benzenesulfonyl)-piperazin-1-yl]-2-methoxy-phenylamino}-5-chloro-pyrimidin-4-ylamino)-N-methyl-benzamide]
